Measured values from US10590130B2, “Chemical compounds” (AstraZeneca AB, priority 2016, dated 2020).

Experiment: Human hepatocyte assay (metabolic stability)
Assay type: in vitro ADME
Conditions: human hepatocytes, in vitro intrinsic clearance
Method: The metabolic stability of compounds in human hepatocytes was assessed using the following protocol: • 1. Prepare 10 mM stock solutions of compound and control compounds in appropriate solvent (DMSO). Place incubation medium (L-15 Medium) in a 37° C. water bath, and allow warming for at least 15 minutes prior to use. • 2. Add 80 μL of acetonitrile to each well of the 96-well deep well plate (quenching plate). • 3. In a new 96-well plate, dilute the 10 mM test compounds and the control compounds to 100 μM by combining 198 μL of acetonitrile and 2 μL of 10 mM stock. • 4. Remove a vial of cryopreserved (less than −150° C.) human hepatocytes (LiverPool™ 10 Donor Human hepatocytes obtained from Celsis IVT. Chicago, Ill. (Product No. S01205)) from storage, ensuring that vials remain at cryogenic temperatures until thawing process ensues. As quickly as possible, thaw the cells by placing the vial in a 37° C. water bath and gently shaking the vials. Vials should remain in water bath until all ice crystals have dissolved and are no longer visible. After thawing is complete, spray vial with 70% ethanol, transfer the vial to a bio-safety cabinet. • 5. Open the vial and pour the contents into the 50 mL conical tube containing thawing medium. Place the 50 mL conical tube into a centrifuge and spin at 100 g for 10 minutes. […] Using Cellometer® Vision, count cells and determine the viable cell density. Cells with poor viability (<80% viability) are not acceptable for use. […] Transfer 247.5 μL of hepatocytes into each well of a 96-well cell culture plate. Place the plate on Eppendorf Thermomixer Comfort plate shaker to allow the hepatocytes to warm for 10 minutes. • 8. Add 2.5 μL of 100 μM test compound or control compounds into an incubation well containing cells, mix to achieve a homogenous suspension at 0.5 min, which when achieved, will define the 0.5 min time point. At the 0.5 min time, transfer 20 μL of incubated mixture to wells in a “Quenching plate” followed by vortexing. • 9. Incubate the plate at 37° C. at 900 rpm on an Eppendorf Thermomixer Comfort plate shaker. […] Centrifuge the quenching plates for 20 minutes at 4,000 rpm. 4 different compounds are pooled into one cassette and used for LC/MS/MS analysis.
All calculations were carried out using Microsoft Excel. Peak areas were determined from extracted ion chromatograms. In vitro intrinsic clearance (in vitro Clint, in […]) of parent compound was determined by regression analysis of the Ln percent parent disappearance vs. time curve.
V=incubation volume (0.25 mL);
N=number of hepatocytes per well (0.25×10^6 cells).
`COCC(F)(F)CN1[C@H](c2ccc(NC3CN(CCCF)C3)cc2OC)c2ccc3[nH]ncc3c2C[C@H]1C` [Example 1, N-(4-((6S,8R)-7-(2,2-difluoro-3-methoxypropyl)-8-methyl-6,7,8,9-tetrahydro-3H-pyrazolo[4,3-f]isoquinolin-6-yl)-3-methoxyphenyl)-1-(3-fluoropropyl)azetidin-3-amine] gave a Clint of 11 μL/min/10^6 cells.
`COCC(F)(F)CN1[C@H](c2ccc(NC3CN(CCCF)C3)cn2)c2ccc3[nH]ncc3c2C[C@H]1C` [Example 2, 6-((6S,8R)-7-(2,2-difluoro-3-methoxypropyl)-8-methyl-6,7,8,9-tetrahydro-3H-pyrazolo[4,3-f]isoquinolin-6-yl)-N-(1-(3-fluoropropyl)azetidin-3-yl)pyridin-3-amine] showed a Clint of 6 μL/min/10^6 cells.
For `C[C@@H]1Cc2c(ccc3[nH]ncc23)[C@@H](c2ccc(NC3CN(CCCF)C3)cn2)N1CC1(F)CC1` [Example 3, 6-((6S,8R)-7-((l-fluorocyclopropyl)methyl)-8-methyl-6,7,8,9-tetrahydro-3H-pyrazolo[4,3-f]isoquinolin-6-yl)-N-(1-(3-fluoropropyl)azetidin-3-yl)pyridin-3-amine], the Clint was 5 μL/min/10^6 cells.
For `COc1cc(NC2CN(CCCF)C2)ccc1[C@@H]1c2ccc3[nH]ncc3c2C[C@@H](C)N1CC1(F)CC1` [Example 6, N-(4-((6S,8R)-7-((l-fluorocyclopropyl)methyl)-8-methyl-6,7,8,9-tetrahydro-3H-pyrazolo[4,3-f]isoquinolin-6-yl)-3-methoxyphenyl)-1-(3-fluoropropyl)azetidin-3-amine], the Clint was 2 μL/min/10^6 cells.
With `C[C@@H]1Cc2c(ccc3[nH]ncc23)[C@@H](c2c(F)cc(NC3CN(CCCF)C3)cc2F)N1CC1(F)CC1` [Example 11, N-(3,5-difluoro-4-((6S,8R)-7-((1-fluorocyclopropyl)methyl)-8-methyl-6,7,8,9-tetrahydro-3H-pyrazolo[4,3-f]isoquinolin-6-yl)phenyl)-1-(3-fluoropropyl)azetidin-3-amine] the Clint was 7 μL/min/10^6 cells.
`C[C@@H]1Cc2c(ccc3[nH]ncc23)[C@@H](c2ncc(NC3CN(CCCF)C3)cc2F)N1CC1(F)CC1` [Example 18, 5-fluoro-6-((6S,8R)-7-((1-fluorocyclopropyl)methyl)-8-methyl-6,7,8,9-tetrahydro-3H-pyrazolo[4,3-f]isoquinolin-6-yl)-N-(1-(3-fluoropropyl)azetidin-3-yl)pyridin-3-amine] gave a Clint of 3 μL/min/10^6 cells.
`COc1cc(NC2CN(CCCF)C2)ccc1[C@@H]1c2ccc3[nH]ncc3c2C[C@@H](C)N1CC(C)(F)F` [Example 19, N-(4-((6S,8R)-7-(2,2-difluoropropyl)-8-methyl-6,7,8,9-tetrahydro-3H-pyrazolo[4,3-f]isoquinolin-6-yl)-3-methoxyphenyl)-1-(3-fluoropropyl)azetidin-3-amine] gave a Clint of 5 μL/min/10^6 cells.
With `COc1cc(NC2CN(CCCF)C2)ccc1[C@@H]1c2ccc3[nH]ncc3c2C[C@@H](C)N1CC(F)F` [Example 21, N-(4-((6S,8R)-7-(2,2-difluoroethyl)-8-methyl-6,7,8,9-tetrahydro-3H-pyrazolo[4,3-f]isoquinolin-6-yl)-3-methoxyphenyl)-1-(3-fluoropropyl)azetidin-3-amine] the Clint was 6 μL/min/10^6 cells.
`C[C@@H]1Cc2c(ccc3[nH]ncc23)[C@@H](c2ccc(NC3CN(CCCF)C3)cn2)N1CC(F)F` [Example 25, 6-((6S,8R)-7-(2,2-difluoroethyl)-8-methyl-6,7,8,9-tetrahydro-3H-pyrazolo[4,3-f]isoquinolin-6-yl)-N-(1-(3-fluoropropyl)azetidin-3-yl)pyridin-3-amine] gave a Clint of 5 μL/min/10^6 cells.
Work on `COc1cc(NC2CN(CCCF)C2)ccc1[C@@H]1c2ccc3[nH]ncc3c2C[C@@H](C)N1CC(F)(F)F` [Example 28, 1-(3-fluoropropyl)-N-(3-methoxy-4-((6S,8R)-8-methyl-7-(2,2,2-trifluoroethyl)-6,7,8,9-tetrahydro-3H-pyrazolo[4,3-f]isoquinolin-6-yl)phenyl)azetidin-3-amine] yielded a Clint of 5 μL/min/10^6 cells.
With `C[C@@H]1Cc2c(ccc3[nH]ncc23)[C@@H](c2ccc(NC3CN(CCCF)C3)cc2)N1CC(F)F` [Example 48, N-(4-((6R,8R)-7-(2,2-difluoroethyl)-8-methyl-6,7,8,9-tetrahydro-3H-pyrazolo[4,3-f]isoquinolin-6-yl)phenyl)-1-(3-fluoropropyl)azetidin-3-amine] the Clint was 4 μL/min/10^6 cells.

Experiment: log D (shake flask, octanol/aqueous buffer)
Assay type: physicochemical
Conditions: 1-octanol/aqueous buffer
Source text: Physical Properties log D
The lipophilicity of a drug is an important physical property which may influence many biological and metabolic properties of a compound, for example the absorption, distribution, metabolism, excretion and toxicity profiles of a compound. The distribution coefficient between 1-octanol and aqueous buffer, Log DO/W, at pH 7.4, is the most commonly used measurement of the lipophilicity of a compound. The current method for measurement of Log DO/W is based on the traditional shake flask technique, but with the modification of measuring compounds in mixtures of ten at a time using UPLC with quantitative mass spectrometry (MS) as a method to measure the relative octanol and aqueous concentrations. […] An additional QC sample Caffeine, with low Log D, are used and randomly placed in all runs. The method has been thoroughly validated against the previous shake flask methodologies.
With `COC[C@](C)(F)CN1[C@H](c2ccc(OC3CN(CCCF)C3)cc2OC)c2ccc3[nH]ncc3c2C[C@H]1C` (single isomer, unassigned) [Example 13] the “LogD pH 7.4” value was 4.
